Data set [1] addresses T1, FGF14:Nav1.6 C-tail complex (Homo sapiens, UniProt Q92915+Q9UQD0).
T1 construct: polymerase chain reaction (PCR) amplification of the FGF14 open reading frame (nt 1–855); C-terminal fragment of Nav1.6 (amino acids 1763–1976) fused with CD4ΔC-tail (amino acids 1–395); expressed in transfected cells
In words: Split-luciferase complementation assay (LCA) in Clone V double stable HEK293 cells. Particulars: for Split Luciferase Assay Z-score Set 1 / Split Luciferase Assay % Lum Set 1 / Split Luciferase Assay Z-score Set 2 / Split Luciferase Assay %Lum Set 2: CC_NCI screening; for Split Luciferase Assay Z-score Set 1 / Split Luciferase Assay % Lum Set 1: biological replicate Set 1; for Split Luciferase Assay Z-score Set 1 / Split Luciferase Assay Z-score Set 2: normalized to on-plate 0.3% DMSO controls; for Split Luciferase Assay % Lum Set 1 / Split Luciferase Assay %Lum Set 2: normalized to on-plate 0.3% DMSO controls (n=16 per plate); for Split Luciferase Assay Z-score Set 2 / Split Luciferase Assay %Lum Set 2: biological replicate Set 2; for Split Luciferase Assay %Lum Avg: average of Set 1 and Set 2, normalized to 0.3% DMSO controls. The data set is classed as cell-based.

Data set [2] concerns the target full-length P. pyralis luciferase (Photinus pyralis, UniProt P08659, K549A/L550V/N119G/N50D/S548I). Type of data set: cell-based. As to conditions: CC_NCI screening; normalized to on-plate 0.3% DMSO controls.
A short description of data set [3]: in vitro. Particulars: human, Clone V cells.
Data set [4] has as its system Clone V cells. In words: CellTiter Blue (CTB) cell viability counter-screen. As to conditions: CC_NCI screening; normalized to on-plate 0.3% DMSO controls.

The values that follow come from PMC6858373 (Scientific Reports, 2019).

Read-outs that look alike come from different tables or passages of the source.

For orientation: IC50 means the concentration needed to halve the response being measured. A word on the viability: it is a read-out of living cells in per cent, often relative to untreated cells.

Sequence of full-length P. pyralis luciferase (P08659 whole entry N50D/N119G/S548I/K549A/L550V, looked up): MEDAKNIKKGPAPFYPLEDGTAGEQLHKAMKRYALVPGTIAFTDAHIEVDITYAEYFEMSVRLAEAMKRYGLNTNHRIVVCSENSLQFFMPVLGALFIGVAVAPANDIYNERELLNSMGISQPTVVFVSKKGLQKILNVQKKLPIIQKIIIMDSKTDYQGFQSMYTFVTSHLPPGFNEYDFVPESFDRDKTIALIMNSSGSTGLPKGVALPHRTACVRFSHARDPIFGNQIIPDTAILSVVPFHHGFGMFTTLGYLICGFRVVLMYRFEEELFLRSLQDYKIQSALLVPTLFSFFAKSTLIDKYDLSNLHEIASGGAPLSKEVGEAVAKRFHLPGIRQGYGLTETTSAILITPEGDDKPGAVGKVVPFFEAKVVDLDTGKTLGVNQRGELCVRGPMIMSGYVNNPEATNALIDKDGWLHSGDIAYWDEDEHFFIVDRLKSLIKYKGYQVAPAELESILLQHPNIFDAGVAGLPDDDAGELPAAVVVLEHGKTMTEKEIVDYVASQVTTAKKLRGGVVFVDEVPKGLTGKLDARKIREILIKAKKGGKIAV
T1 sequence (Q92915 1-252 isoform Q92915-2): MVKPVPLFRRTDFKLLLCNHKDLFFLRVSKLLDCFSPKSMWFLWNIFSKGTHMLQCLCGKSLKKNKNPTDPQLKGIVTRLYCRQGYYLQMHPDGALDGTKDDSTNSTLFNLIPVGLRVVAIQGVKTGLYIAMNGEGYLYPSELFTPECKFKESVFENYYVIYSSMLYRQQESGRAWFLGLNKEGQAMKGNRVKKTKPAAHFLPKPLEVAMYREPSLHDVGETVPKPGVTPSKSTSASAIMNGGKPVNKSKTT
T1 sequence (Q9UQD0 1763-1976 limits assumed): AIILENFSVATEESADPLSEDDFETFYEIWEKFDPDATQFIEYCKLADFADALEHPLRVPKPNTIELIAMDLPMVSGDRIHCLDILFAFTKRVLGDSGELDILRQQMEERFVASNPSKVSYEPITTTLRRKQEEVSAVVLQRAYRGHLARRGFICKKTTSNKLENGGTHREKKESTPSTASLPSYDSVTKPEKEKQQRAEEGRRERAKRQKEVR

Turning to `C[C@@H](Oc1cc(-c2cnn(C3CCNCC3)c2)cnc1N)c1c(Cl)ccc(F)c1Cl` [Crizotinib, reference compound], the “Z-score (LCA primary screening)” value in data set [1] (30 µM, 384-well, average of primary screening (n = 2), vs on-plate 0.3% DMSO) was −5.29. Further, in data set [1] (10-point dose response 0.25-50 µM, Clone V cells), the “dose-response behavior of repurchased compounds” value is “purely inhibitory effects”. Moreover, in data set [1], the “Split Luciferase Assay Z-score Set 1” value is -5.24, the “Split Luciferase Assay % Lum Set 1” value stood at 35.11%, the “Split Luciferase Assay Z-score Set 2” value is reported as -5.34 and the “Split Luciferase Assay %Lum Set 2” value amounted to 34.33%. In addition, the “Split Luciferase Assay %Lum Avg” value in data set [1] was 34.72%. In addition, the “IMin (% Luminescence)” value in data set [1] (antagonists, Clone V cells, 384-well, normalized to DMSO) came out at 34.72 % Luminescence. In addition, the “action toward the FGF14:Nav1.6 C-tail interaction” value in data set [1] (dose-dependency validation using fresh compound samples) is listed as “acted as antagonists”. For the same compound, in data set [1] (estimated, 8-point dose response 0.25-30 µM, n = 4 per concentration, library compounds, read-out: IC50), the IC50 is 12.2 µM. Also, in data set [1] (repurchased compounds, 10-point dose response 0.25-50 µM, n = 8 per concentration, Clone V cells, 384-well, read-out: in-cell IC50), the IC50 was 15.5 µM. Moreover, in data set [2], the “Luciferase Assay % Lum (full-length luciferase counter-screen)” value is given as 91.93% and the “Luciferase Assay Z-score (full-length luciferase counter-screen)” value is listed as -1.03. In addition, the viability at 16 h, 30 µM in data set [3] is 102%. In addition, the “Toxicity Assay Z-score (CTB cell viability)” value in data set [4] is reported as 0.27.
For the compound `CC(=O)O[C@@]12CO[C@@H]1C[C@H](O)[C@@]1(C)C(=O)[C@H](O)C3=C(C)[C@@H](OC(=O)[C@H](O)[C@@H](NC(=O)OC(C)(C)C)c4ccccc4)C[C@@](O)([C@@H](OC(=O)c4ccccc4)[C@H]21)C3(C)C` [Docetaxel], in data set [1], the “Split Luciferase Assay Z-score Set 1” value came to 6.00, the “Split Luciferase Assay % Lum Set 1” value worked out at 174.26%, the “Split Luciferase Assay Z-score Set 2” value is 4.48 and the “Split Luciferase Assay %Lum Set 2” value was 155.01%. Besides, the “Split Luciferase Assay %Lum Avg” value in data set [1] was determined as 164.63%. In data set [2], the “Luciferase Assay % Lum (full-length luciferase counter-screen)” value was found to be 101.54% and the “Luciferase Assay Z-score (full-length luciferase counter-screen)” value came out at 0.20. Further, in data set [3], the viability at 16 h, 30 µM was 107%. Besides, the “Toxicity Assay Z-score (CTB cell viability)” value in data set [4] is listed as 0.98.
